Experimental data reported in patent US20150148235A1, “HERBICIDE-RESISTANT SUNFLOWER PLANTS WITH MULTIPLE HERBICIDE RESISTANT ALLELES OF AHASL1 AND METHODS OF USE” (NIDERA S.A., priority 2013, published 2015).

System: AHAS enzyme, A122T Heterozygous sunflower
Assay: AHAS enzyme activity assay, leaf extract
Format: biochemical, Helianthus annuus
Conditions: A122T heterozygous hybrid (Set 2)
Procedure: Twelve greenhouse grown sunflower plants from each of the lines depicted in Table 21 were bulked and subjected to an AHAS enzyme activity assay via the method of Singh et al. (1988) Anal. Biochem. 171:173-179. Each activity assay was repeated twice. Due to the large number of samples, the experiment was split into two sets (Table 21).
Young, actively growing leaves, from four week old plantlets, were ground in a mortar and pestle with liquid N2 and extracted with a buffer composed of 100 mM Pyruvate, 200 mM KH2PO4, 20 mM MgCl2, 2 mM thiamine pyrophosphate and […]. Plant extracts were then spun through a 10 mL Zeba TM desalt spin column (Pierce #89893) as per the manufacturer's recommendation. The inhibition assay was performed as described by Singh et al. (1988) Anal. Biochem. 171:173-179. Assays were conducted in a 96-well format. Fifty μl of inhibitor was added to each well containing 50 μl of soluble protein extract to give final concentrations of 0.78, 1.56, 3.125, 6.25, 12.5, 25, 50 and 100 μM imazamox or 0.78, 1.56, 3.125, 6.25, 12.5, 25, 50 and 100 μM imazapyr. Zero herbicide controls were also included for each line. Reactions were processed as outlined by Singh et al. (1988) Anal. Biochem. 171:173-179. Absorbance was measured at 530 nm. AHAS activity, expressed as the mean of the absorbance values for each treatment, was presented as a percentage of the mean of the zero-herbicide controls.

SMILES: COCc1cnc(C2=NC(C)(C(C)C)C(=O)N2)c(C(=O)O)c1 (centres unmarked) [imazamox]
- AHAS activity (50 μM): 30%
- AHAS activity (100 μM): 30%
